Laboratory results taken from US20260183295A1, “METHODS AND COMPOSITIONS FOR TREATING CANCER” (Onconova Therapeutics, Inc., priority 2022, published 2026).

Legend:
PARP in HCC-1937 = assay: PARP cleavage after 72 hours treatment; type: cell-based; settings: HCC-1937 (TNBC)
Protocol: (§1) The effects on the different treatment conditions on BUB 1 levels and PARP cleavage were also assessed. For both MNA-MB-231 cells, Compound 1 alone or with HCQ or SBI decreased BUB1 levels and cleaved PARP with […] decreases in cell viability observed for all treatments except Compound 1+SBI in MMA-MB-231 cells. The effects of Compound 1 with or without autophagy inhibitors was less pronounced in HCC-1937 cells.

PARP in MDA-MB-231 = assay: PARP cleavage after 72 hours treatment; type: cell-based; settings: MDA-MB-231 (TNBC)
Protocol: as §1

PARP in MDA-MB-468 = assay: PARP cleavage after 72 hours treatment; type: cell-based; settings: MDA-MB-468 (TNBC)
Protocol: as §1

Cyclin D1 = assay: Western blot, MDA-MB-231 cells, 24 hours; type: cell-based; settings: 2.5, 5, 10 μM, versus Comparator 1, 2 and 4
pRb = assay: Western blot, MDA-MB-231 cells, 24 hours; type: cell-based; settings: 2.5, 5, 10 μM, versus Comparator 1, 2 and 4
MDA-MB-231 cells [1] = assay: MTT assay, 24 hours; type: cell-based
MDA-MB-231 cells [2] = assay: Annexin V/PI staining with or without bafilomycin A1, 2 days; type: cell-based; settings: 5 μM
Excerpt: The effect was increased with bafilomycin A1 cotreatment.

NUAK1 [3] = target: T1, NUAK1 (Homo sapiens, UniProt O60285); assay: NUAK1 NanoBret; type: cell-based
T1 sequence (O60285 1-661): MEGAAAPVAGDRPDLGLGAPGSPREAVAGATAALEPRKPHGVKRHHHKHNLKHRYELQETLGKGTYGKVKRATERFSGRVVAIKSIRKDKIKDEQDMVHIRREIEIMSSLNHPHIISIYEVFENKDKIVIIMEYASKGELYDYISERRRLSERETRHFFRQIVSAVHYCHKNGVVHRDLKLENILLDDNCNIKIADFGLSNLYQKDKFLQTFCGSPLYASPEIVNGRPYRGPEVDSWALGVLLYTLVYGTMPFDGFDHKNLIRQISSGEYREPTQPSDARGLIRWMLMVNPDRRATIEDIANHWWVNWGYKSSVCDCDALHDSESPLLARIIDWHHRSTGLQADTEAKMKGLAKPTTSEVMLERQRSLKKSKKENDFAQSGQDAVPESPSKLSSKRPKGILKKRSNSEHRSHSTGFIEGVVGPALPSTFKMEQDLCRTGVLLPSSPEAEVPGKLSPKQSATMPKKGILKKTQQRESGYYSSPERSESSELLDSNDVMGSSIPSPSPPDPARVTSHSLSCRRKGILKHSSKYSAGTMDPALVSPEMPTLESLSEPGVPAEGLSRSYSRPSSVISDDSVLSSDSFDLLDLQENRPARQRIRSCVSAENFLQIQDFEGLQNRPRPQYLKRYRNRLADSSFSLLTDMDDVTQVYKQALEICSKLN

CDK4/cyclin D1 = CDK4/cyclin D1 (Homo sapiens, UniProt P11802); assay: CDK4/cyclin D1 In Vitro IC50; type: biochemical
Protocol: Substrate was prepared in freshly prepared base reaction buffer. Any required cofactors were delivered to the substrate solution above. Indicated kinase was delivered into the substrate solution and the solution was gently mixed. Compounds were delivered in 100% DMSO into the kinase reaction mixture by Acoustic technology (Echo550; nanoliter range) and incubated for 20 minutes at room temperature. 33P-ATP was delivered into the reaction mixture to initiate the reaction. The kinase reaction was incubated for 2 hours at room temperature. Kinase activity was detected by P81 filter-binding method.

NanoLuc-CDK16 Fusion = target: T2, NanoLuc-CDK16 Fusion (Homo sapiens, UniProt Q00536); assay: Cellular NanoBRET assay in HEK293 cells, raw data ratio; type: cell-based
T2 construct: expressed in transfected cells; host or cells: HEK293, transient
Protocol: HEK293 cells were transfected with 1 ug of NanoLuc-CDK16 Fusion vector and 9 ug of either carrier DNA or cyclin Y DAN. The HEK293 cells transiently expressing the vectors were then seeded into the wells of 384-well plates. The cells were pre-treated with the NanoBRET Tracer K-10 (0.5 uM) and then treated with 3-fold serial dilutions (10 uM-0.5 nM), of Compound 1 or the reference compound APY-69 for 1 hour. The BRET signal was measured on an Envision2104 Multilabel Reader. IC50 value was calculated and IC50 curve was plotted using the GraphPad Prism 4 program based on a sigmoidal dose response equation.

NUAK1 [4] = target: T1, NUAK1; assay: NUAK1 CETSA; type: cell-based; design: endogenous in cells; host or cells: MDA-MB-231 (lysates and intact cells)
Protocol: Following treatment, cell lysates were thermally treated in a thermal gradient profile across a temperature range. Following the thermal shift, cell lysates were spun by centrifuge to pellet aggregate protein and the supernatant withdrawn. The supernatant was then denatured in buffer and heated to denature, reduce, and alkylate the supernatant proteins. Following heating and cooling to room temperature, cold acetone was added to the supernatant samples and proteins precipitated.
TNBC MDA-MB-231 cells were grown at 37° C. in 5% CO2 and suspended in warm media and split into 4 equal volumes. […] Cells were incubated and then pelleted. Following pelleting, the cells were washed, resuspended, and heated in a thermal gradient. Following heating, the samples were flash frozen and lysed in lysis buffer, agitated by vortex, and sonicated prior to centrifugation. The supernatant was collected and denaturation buffer added. Cold acetone was then added to the cell samples, and protein collected by centrifugation. […]
The intact cell protein samples and lysate protein samples were then digested and labeled for mass spectrometry analysis according to the manufacturer's recommended protocols. Digested and labeled protein samples were analyzed by mass spectrometry proteomic analysis and the resulting protein targets were analyzed and plotted.

T2 sequence (Q00536 whole entry, the tested form may be a part): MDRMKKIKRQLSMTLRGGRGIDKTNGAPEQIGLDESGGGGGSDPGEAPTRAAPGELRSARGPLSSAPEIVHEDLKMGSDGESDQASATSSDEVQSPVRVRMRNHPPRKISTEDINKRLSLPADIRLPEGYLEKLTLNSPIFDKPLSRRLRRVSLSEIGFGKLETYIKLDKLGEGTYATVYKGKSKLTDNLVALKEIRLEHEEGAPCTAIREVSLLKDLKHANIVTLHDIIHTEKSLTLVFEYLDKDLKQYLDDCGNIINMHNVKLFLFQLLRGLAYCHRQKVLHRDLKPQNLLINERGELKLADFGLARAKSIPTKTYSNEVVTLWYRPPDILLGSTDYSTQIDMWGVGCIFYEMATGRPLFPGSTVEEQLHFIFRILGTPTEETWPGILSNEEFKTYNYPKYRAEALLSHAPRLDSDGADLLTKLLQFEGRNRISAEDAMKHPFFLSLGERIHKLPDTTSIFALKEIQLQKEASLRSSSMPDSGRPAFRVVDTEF
T2 sequence (Q8ND76 whole entry partner, the tested form may be a part): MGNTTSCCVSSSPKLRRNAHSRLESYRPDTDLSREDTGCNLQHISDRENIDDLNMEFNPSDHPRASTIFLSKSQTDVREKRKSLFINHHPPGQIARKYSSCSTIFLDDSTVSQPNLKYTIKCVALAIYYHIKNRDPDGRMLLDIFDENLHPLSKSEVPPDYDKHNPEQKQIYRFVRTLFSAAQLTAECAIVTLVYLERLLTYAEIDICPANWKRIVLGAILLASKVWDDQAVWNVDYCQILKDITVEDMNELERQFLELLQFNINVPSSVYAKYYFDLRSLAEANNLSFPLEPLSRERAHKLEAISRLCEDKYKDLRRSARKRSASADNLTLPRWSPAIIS
Chain of CDK4/cyclin D1 (P11802 whole entry): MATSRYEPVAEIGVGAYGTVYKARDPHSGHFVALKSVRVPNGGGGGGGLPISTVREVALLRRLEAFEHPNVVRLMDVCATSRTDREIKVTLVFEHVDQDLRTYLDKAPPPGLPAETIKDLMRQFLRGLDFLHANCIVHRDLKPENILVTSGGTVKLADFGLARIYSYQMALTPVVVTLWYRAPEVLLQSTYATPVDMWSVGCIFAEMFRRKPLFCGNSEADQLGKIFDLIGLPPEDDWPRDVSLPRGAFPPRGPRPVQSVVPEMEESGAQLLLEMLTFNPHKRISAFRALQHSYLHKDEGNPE
Chain of CDK4/cyclin D1 (P24385 whole entry partner): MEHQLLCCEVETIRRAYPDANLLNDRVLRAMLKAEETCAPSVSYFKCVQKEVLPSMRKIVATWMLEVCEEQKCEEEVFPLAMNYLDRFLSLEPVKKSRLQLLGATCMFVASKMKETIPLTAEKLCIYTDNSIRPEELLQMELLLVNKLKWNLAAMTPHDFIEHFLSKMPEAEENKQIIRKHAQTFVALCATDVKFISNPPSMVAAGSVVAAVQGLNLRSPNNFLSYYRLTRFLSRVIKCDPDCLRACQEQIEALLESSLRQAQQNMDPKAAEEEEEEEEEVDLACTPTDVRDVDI

SMILES: CN1CCN(c2ccc(Nc3ncc4cc(C#N)c(=O)n(C5CCCC5)c4n3)cc2)CC1 [Compound 1, 8-cyclopentyl-2-((4-(4-methylpiperazin-1-yl)phenyl)amino)-7-oxo-7,8-dihydropyrido[2,3-d]pyrimidine-6-carbonitrile]
- PARP Cleavage (PARP in HCC-1937): No
- PARP Cleavage (PARP in MDA-MB-231): Yes
- PARP Cleavage (PARP in MDA-MB-468): Yes
- Cyclin D1 levels (Cyclin D1): decreasing
- pRb levels (pRb): decreasing
- cell viability (MTT) (MDA-MB-231 cells [1]; 2.5 μM, 5 μM and 10 μM, compared to Comparator 1 and Comparator 2): decreases cell viability to a greater extent
- effect of zVAD-FMK on cell death, MTT assay (MDA-MB-231 cells [1]; zVAD-FMK 20 μM (FIG. 25)): unaffected by zVAD-FMK treatment
- cell death (Annexin V/PI), compound alone (MDA-MB-231 cells [2]): induced cell death
- effect of bafilomycin A1 cotreatment on cell death (Annexin V/PI) (MDA-MB-231 cells [2]): increased
- IC50 (NUAK1 [3]): 42 nM
- IC50 (CDK4/cyclin D1): 2 nM
- raw data ratio 600 nm/460 nm, Data 1 (NanoLuc-CDK16 Fusion; Conc. 0.0005 μM): 0.07557
- raw data ratio 600 nm/460 nm, Data 2 (NanoLuc-CDK16 Fusion; Conc. 0.0005 μM): 0.0761
- raw data ratio 600 nm/460 nm, Data 1 (NanoLuc-CDK16 Fusion; Conc. 0.0015 μM): 0.06908
- raw data ratio 600 nm/460 nm, Data 2 (NanoLuc-CDK16 Fusion; Conc. 0.0015 μM): 0.06919
- raw data ratio 600 nm/460 nm, Data 1 (NanoLuc-CDK16 Fusion; Conc. 0.0046 μM): 0.05883
- raw data ratio 600 nm/460 nm, Data 2 (NanoLuc-CDK16 Fusion; Conc. 0.0046 μM): 0.05984
- raw data ratio 600 nm/460 nm, Data 1 (NanoLuc-CDK16 Fusion; Conc. 0.0137 μM): 0.04626
- raw data ratio 600 nm/460 nm, Data 2 (NanoLuc-CDK16 Fusion; Conc. 0.0137 μM): 0.04683
- raw data ratio 600 nm/460 nm, Data 1 (NanoLuc-CDK16 Fusion; Conc. 0.0412 μM): 0.04036
- raw data ratio 600 nm/460 nm, Data 2 (NanoLuc-CDK16 Fusion; Conc. 0.0412 μM): 0.04048
- raw data ratio 600 nm/460 nm, Data 1 (NanoLuc-CDK16 Fusion; Conc. 0.1235 μM): 0.02963
- raw data ratio 600 nm/460 nm, Data 2 (NanoLuc-CDK16 Fusion; Conc. 0.1235 μM): 0.03005
- raw data ratio 600 nm/460 nm, Data 1 (NanoLuc-CDK16 Fusion; Conc. 0.3704 μM): 0.02837
- raw data ratio 600 nm/460 nm, Data 2 (NanoLuc-CDK16 Fusion; Conc. 0.3704 μM): 0.02942
- raw data ratio 600 nm/460 nm, Data 1 (NanoLuc-CDK16 Fusion; Conc. 1.1111 μM): 0.02836
- raw data ratio 600 nm/460 nm, Data 2 (NanoLuc-CDK16 Fusion; Conc. 1.1111 μM): 0.02899
- raw data ratio 600 nm/460 nm, Data 1 (NanoLuc-CDK16 Fusion; Conc. 3.3333 μM): 0.02996
- raw data ratio 600 nm/460 nm, Data 2 (NanoLuc-CDK16 Fusion; Conc. 3.3333 μM): 0.02908
- raw data ratio 600 nm/460 nm, Data 1 (NanoLuc-CDK16 Fusion; Conc. 10.0000 μM): 0.02733
- raw data ratio 600 nm/460 nm, Data 2 (NanoLuc-CDK16 Fusion; Conc. 10.0000 μM): 0.02831
- CETSA (NUAK1 [4]): NEG
